Values after ≈ are worked out from the molar mass of the structure shown. Read-outs that look alike come from different tables or passages of the source. Blank lines part the entries; values can stand above or below the compound they belong to.
Key:
[1] = test system: Plasmodium falciparum W-2 (chloroquine-resistant, Indochina clone); test: Antiplasmodial [3H] hypoxanthine incorporation assay, W2 clone; type: cell-based
Source text: (§1) The antiplasmodial testing of the extracts was run in duplicate. The method was based upon the [^3H] hypoxanthine incorporation assay, as described by Desjardins and modified by Ridley and the data fitted to generate IC50 and IC90 values, corresponding to the concentrations required to cause 50 and 90% inhibition of parasite growth respectively. The Plasmodium falciparum clones used for the testing were W-2 and D-6. W-2 strain otherwise known as the Indochina clone is known to be resistant to chloroquine, pyrimethamine, sulfadoxine and quinine. Meanwhile the D-6 otherwise known as the Sierra Leonian clone is resistant to mefloquine but sensitive to the above named drugs. Chloroquine, quinine and artesunate were used as reference drugs. […] Compounds 1 and 2 (due to their quantity) were subsequently tested against T. cruzi, L. donovani and T. b. rhodensiense, parasites responsible for Chagas disease, leishmaniasis and human African trypanosomiasis (sleeping sickness) respectively with Benznidazole, Miltefosine and Melarsoprol included as reference drugs. Cytotoxicity was evaluated using HT-29 (human […] carcinoma) with podophyllotoxin as reference drug.
(§2) The crude S. striatinux extracts (MeOH and CH2Cl2) were tested at the Walter Reed Army Institute of Research (WRAIR), Washington. DC. […] The method used for antiplasmodial testing, was based upon [^3H] hypoxanthine incorporation assay, previously described in the literature. Both chloroquine-sensitive (NF54, D6) and chloroquine-resistant (K1, W2) strains and chloroquine, quinine and artesunate used as positive references. L. donovani MHOM-ET-67/L82 (obtained from the spleen of an infected hamster and grown in axenic cultures) was used for the antileishmanial testing while T. brucei squib 427 strain (suramin-sensitive) was used for the antitrypanosomal testing. Cytotoxicity test was done using HT-29 (human […] carcinoma), with podophyllotoxin included as reference drug at a concentration of 0.1 μg/mL.

[2] = test system: Plasmodium falciparum D-6 (chloroquine-sensitive, Sierra Leonian clone); test: Antiplasmodial [3H] hypoxanthine incorporation assay, D6 clone; type: cell-based
Source text: as §1, §2

[3] = test system: Plasmodium falciparum NF54 (chloroquine-sensitive); test: Antiplasmodial [3H] hypoxanthine incorporation assay, NF54 strain; type: cell-based; settings: for IC50: Plasmodium falciparum
Source text: as §1, §2

[4] = test system: Plasmodium falciparum K1 (chloroquine-resistant); test: Antiplasmodial [3H] hypoxanthine incorporation assay, K1 strain; type: cell-based; settings: P. falciparum K1, results from STI
Source text: as §1
(§3) The crude S. striatinux extracts (MeOH and CH2Cl2) were tested at the Walter Reed Army Institute of Research (WRAIR), Washington. DC. […]

[5] = test system: T. cruzi; test: Antitrypanosomal testing, T. cruzi; type: cell-based, Trypanosoma cruzi; settings: calculated versus cytotoxicity (HT-29)
Source text: as §1, §3

[6] = test system: L. donovani MHOM-ET-67/L82; test: Antileishmanial testing; type: cell-based, Leishmania donovani; settings: calculated versus cytotoxicity (HT-29)
Source text: as §1, §3

[7] = test system: T. b. rhodesiense; test: Antitrypanosomal testing, T. b. rhodesiense; type: cell-based, Trypanosoma brucei rhodesiense; settings: calculated versus cytotoxicity (HT-29)
Source text: as §1, §3

[8] = Kinetic solubility, turbidimetric method (nephelometry); type: physicochemical; settings: kinetic from dmso stock, 1% DMSO
Method: The solubility of the compounds was estimated via the turbidimetric method using standard test buffers (pH 2.0 and pH 6.5) as previously described. […] There was no significant change in ionization in the molecule across this pH range.
(§4) The kinetic solubility of test compounds was examined by spiking compound in DMSO into either pH 6.5 phosphate buffer or 0.01 M HCl (approximately pH 2.0) with the final DMSO concentration being 1%. Samples were then analysed via nephelometry to determine a solubility range [23]. Effective log D values were measured using a chromatographic method employing a SUPELCOSIL LC-ABZ column using an octanol saturated mobile phase at pH 7.4 [23]. Theoretical physicochemical values were determined using the ACD logD suite of software programs. The molecular weight (MW) should ideally be ≤500 for good membrane permeability, while the hydrogen bond donor/acceptor properties should be respectively ≤5 and ≤10 respectively. The number of single bonds that are not in a ring or constrained system and are not bonded to a hydrogen atom (often referred to as the number of rotatable single bonds) should be ≤10 for acceptable oral bioavailability. The polar surface area (PSA) was calculated using a simplified 2-dimensional modeling approach, which has been validated against a more sophisticated 3-dimentional modeling strategy. For acceptable oral drug absorption and membrane permeability, the PSA value should be ≤120 Å^2. […] The 1-octanol/water partition coefficient were calculated for ionisable compounds. The values were calculated on the basis of log P and pKa values. Log D values are quoted with respect to a relevant pH, thereby providing a partition coefficient profile under physiologically relevant conditions.

[9] = Chromatographic eLogD technique; type: physicochemical; settings: for chromatographic logD: SUPELCOSIL LC-ABZ column with octanol saturated mobile phase, pH 7.4
Method: The partition coefficients of the two compounds were measured via the previously described chromatographic technique. […] The LogD7.4 value for compound 2 of 0.35 is towards the lower end of the scale normally associated with “drug-like” molecules. […] For compound 2, parameters were also calculated for its terminal aldehyde tautomer, 2a, which is presumed to be the major form of the compound. The overall calculated parameters fall within the ranges associated with “drug-like” molecules.
as §4

[10] = Metabolic stability in human liver microsomes; type: in vitro ADME; settings: for Metabolites detected: LCMS; for microsomal CLint at 2 µM: NADPH dependent degradation, 37 °C, read-out: In vitro CL int; for Microsome predicted E H (hepatic extraction ratio): Q = 20.7 mL/min/kg; for CLint scaled at 2 µM: scaled from in vitro CL int, read-out: Microsome predicted CL int
Source text: The objective here was to determine the in vitro metabolic stability of these two compounds using human liver microsomes as a preliminary indication of their likely in vivo metabolic clearance and potential metabolic products. The method used was as outlined in Obach. […] The compounds maybe susceptible to […] in more complicated test systems based on their structure, since both compounds 1 and 2 contain an α, β-unsaturated ketone moiety with the potential to act as a Michael acceptor (by forming adducts with endogenous nucleophiles such as glutathione). However, this was not investigated and would be the subject of future studies in which we hope to use a simple chemical system (i.e., in aqueous buffer containing free glutathione) or examining the extent of degradation in whole blood.
Test compounds (2 µM) were incubated at 37 °C with human liver microsomes [purchased from BD Gentest (Woburn, MA) using microsome lot # 41207]. The reaction was initiated by the addition of an NADPH-regenerating system (i.e. NADPH is the cofactor required for CYP450-mediated metabolism) and quenched at various time points over the incubation period by the addition of acetonitrile. Additional samples co-activated by NADPH and UDPGA (the co-factor for glucoronidation), were included in the incubation for the qualitative assessment of the potential for glucoronide formation. The relative loss of parent compound and formation of metabolic products was determined using a single quadrupole LCMS instrument (Waters, Manchester, UK).
Test compound concentration versus time data was fitted to an exponential decay function to determine the first-order rate constant for substrate depletion (k). Each substrate depletion rate constant was then used to calculate: (1) an initial in vitro clearance value (in vitro, CL int,in vitro); (2) an intrinsic clearance value (CL int); and (3) a hepatic extraction ratio (E H)1 CLint,invitro=k/microsomalproteincontent(0.4mgprotein/mL) 2 CLint=CLint,invitro×livermass(g)/bodyweight(kg)×45mgmicrosomalprotein/glivermass 3 EH=CLint/Q+CLint For Eqs.

[11] = P. falciparum W2, mean of 2–3 determinations, results from WRAIR, read-out: IC50 W2
[12] = P. falciparum D6, mean of 2–3 determinations, results from WRAIR, read-out: IC50 D6
[13] = P. falciparum NF54, results from STI, read-out: IC50 NF54
[14] = aqueous buffer, pH 6.5 phosphate buffer, read-out: Solubility pH 6.5
[15] = simulated gastric fluid, pH 2 (0.01 M HCl), read-out: Solubility pH 2

SMILES: CCN(CC)CCCC(C)Nc1ccnc2cc(Cl)ccc12 (centres unmarked) [Chloroquine, reference compound]
IC50 ([1]; W2, read-out: IC50 W2): 0.084 µg/mL (≈ 0.263 µM)
IC50 ([2]; D6, read-out: IC50 D6): 0.003 µg/mL (≈ 0.00938 µM)
IC50 ([3]; NF54, read-out: IC50 NF54): 0.0023 µg/mL (≈ 0.00719 µM)

IC50 [1, 11]: 0.46 µg/mL (≈ 1.09 µM)
IC50 [2, 12]: 0.539 µg/mL (≈ 1.28 µM)
IC50 [3, 13]: > 1 µg/mL
SMILES: CCCCCCCCCC(=O)OC/C=C(\C)C(=O)C[C@H]1C(C)(C)C(=O)C=C[C@]1(C)O [Compound 3]

IC50 [3, 13]: > 1 µg/mL
SMILES: C=CC(C)(O)C(=O)C[C@H]1C(C)(C)C(=O)C=C[C@]1(C)O (some centres unmarked) [Compound 4]

IC50 [1, 11]: 0.354 µg/mL (≈ 1.33 µM)
IC50 [2, 12]: 0.267 µg/mL (≈ 1 µM)
IC50 [4]: 0.511 µg/mL (≈ 1.92 µM)
IC50 [3, 13]: 0.439 µg/mL (≈ 1.65 µM)
solubility [8, 14]: > 100 µg/mL
solubility [8, 15]: 50 to 100 µg/mL (≈ 188 to 375 µM)
elogD pH 7.4 [9]: 0.35
chromatographic logD [9]: 0.35
Metabolites detected [10]: None detected
microsomal CLint at 2 µM [10]: 7.4 µL/min/mg
Microsome predicted E H (hepatic extraction ratio) [10]: 0.29
CLint scaled at 2 µM [10]: 8.6 mL/min/kg
SMILES: C/C(=C\CO)C(=O)C[C@H]1C(C)(C)C(=O)C=C[C@]1(C)O [Compound 2, sclerienone C]
SI (selective index) T. cruzi [5]: 0.74
SI (selective index) L. donovani [6]: 5.9
SI (selective index) T. b. rhod [7]: 8.3

IC50 NF54 ([3]; P. falciparum NF54, results from STI): >1 µg/mL
SMILES: C=CC(C)(O)C(=O)C[C@H]1C(C)(C)C(=O)C=C[C@]1(C)O (some centres unmarked) [Compound 5]

IC50 [1, 11]: 0.47 µg/mL (≈ 1.76 µM)
IC50 [2, 12]: 0.483 µg/mL (≈ 1.81 µM)
IC50 [3, 13]: > 1 µg/mL
SMILES: C=CC(C)(O)C1C[C@H]2C(C)(C)C(=O)C=C[C@]2(C)OO1 (some centres unmarked) [Compound 6]

IC50 [1, 11]: 0.097 µg/mL (≈ 0.299 µM)
IC50 [2, 12]: 0.027 µg/mL (≈ 0.0832 µM)
SMILES: C=C[C@H]1C[N@@]2CC[C@H]1C[C@H]2[C@H](O)c1ccnc2ccc(OC)cc12 [Quinine, reference compound]

IC50 [1, 11]: 0.268 µg/mL (≈ 1.01 µM)
IC50 [2, 12]: 0.195 µg/mL (≈ 0.732 µM)
IC50 [4]: 0.661 µg/mL (≈ 2.48 µM)
IC50 [3, 13]: 0.304 µg/mL (≈ 1.14 µM)
solubility [8, 14]: > 100 µg/mL
solubility [8, 15]: > 100 µg/mL
elogD pH 7.4 [9]: 1.71
chromatographic logD [9]: 1.71
Metabolites detected [10]: None detected
microsomal CLint at 2 µM [10]: 12.3 µL/min/mg
Microsome predicted E H (hepatic extraction ratio) [10]: 0.41
CLint scaled at 2 µM [10]: 14.3 mL/min/kg
SMILES: C/C(=C\CO)[C@H]1C[C@H]2C(C)(C)C(=O)C=C[C@]2(C)OO1 [Compound 1, okundoperoxide]
SI (selective index) T. cruzi [5]: 1
SI (selective index) L. donovani [6]: 11.4
SI (selective index) T. b. rhod [7]: 3.4

IC50 [3, 13]: 0.0019 µg/mL (≈ 0.00494 µM)
SMILES: C[C@H]1[C@H](OC(=O)CCC(=O)O)O[C@@H]2O[C@@]3(C)CC[C@H]4[C@H](C)CC[C@@H]1[C@@]24OO3 [Artesunate, reference compound]
